Test [1] concerns the target Recombinant human soluble BACE-1 catalytic domain (Homo sapiens (Human), UniProt P56817). The experiment in a line: BACE-1 Ki Assay (BACE-1 HTRF FRET Assay). Type of test: biochemical. The protocol:
Assay 1: BACE-1 Ki Assay (BACE-1 HTRF FRET Assay)
The compounds of the invention were assessed for their ability to inhibit BACE-1 using the following assay.
The following reagents were used in this assay. Na^+-Acetate pH 5.0; 1% Brij-35; Glycerol; Dimethyl Sulfoxide (DMSO); Recombinant human soluble BACE-1 catalytic domain (>95% pure); APP Swedish mutant peptide substrate (QSY7-APP^swe-Eu): QSY7-EISEVNLDAEFC-Europium-amide.
A homogeneous time-resolved FRET assay can be used to determine IC50 values for inhibitors of the soluble human BACE-1 catalytic domain. This assay monitors the increase of 620 nm fluorescence that resulted from BACE-1 cleavage of an APPswedish APP^swe mutant peptide FRET substrate (QSY7-EISEVNLDAEFC-Europium-amide). This substrate contains an N-terminal QSY7 moiety that serves as a quencher of the C-terminal Europium fluorophore (620 nm Em). In the absence of enzyme activity, 620 nm fluorescence is low in the assay and increased linearly over 3 hours in the presence of uninhibited BACE-1 enzyme. Inhibition of BACE-1 cleavage of the QSY7-APP^swe-Eu substrate by inhibitors is manifested as a suppression of 620 nm fluorescence.
Varying concentrations of inhibitors at 3× the final desired concentration in a volume of 10 ul are preincubated with purified human BACE-1 catalytic domain (3 nM in 10 μl) for 30 minutes at 30° C. in reaction buffer containing 20 mM Na-Acetate pH 5.0, 10% glycerol, 0.1% Brij-35 and 7.5% DSMO. Reactions are initiated by addition of 10 μl of 600 nM QSY7-APP^swe-Eu substrate (200 nM final) to give a final reaction volume of 30 μl in a 384 well Nunc HTRF plate. The reactions are incubated at 30° C. for 1.5 hours. The 620 nm fluorescence is then read on a Rubystar HTRF plate reader (BMG Labtechnologies) using a […] delay followed by a 400 millisecond acquisition time window. Inhibitor IC50 values are derived from non-linear regression analysis of concentration response curves. Ki values are then calculated from IC50 values using the Cheng-Prusoff equation using a previously determined […] of 8 μM for the QSY7-APP^swe-Eu substrate at BACE-1. The example compounds of the invention were measured in this assay.

The subject of test [2] is CSF levels of Aβ1-40 (Aβ40). The experiment in a line: Aβ Reduction In Vivo (rat CSF Aβ40). The following applies: 3 h, 10 mg/kg oral gavage. The protocol:
Assay 3: Aβ Reduction In Vivo
The in vivo efficacy and/or potency of BACE inhibitors (test compounds) can be evaluated using a variety of animal models, including mouse, rat, dog, and monkey, and these animals can be wild type, transgenic, or gene knockout animals.
Generally, animals are administered (by oral gavage, intravenous injection, or by other suitable route) a test compound in doses ranging from, for example, 0.1 mg/kg (mg of compound per kg of animal body weight) to 100 mg/kg formulated in vehicles, such as cyclodextrin, phosphate buffer, hydroxypropyl methylcellulose or other suitable vehicles. One to twenty-four hours following the administration of compound, animals are sacrificed, and tissues (for example, brain, cerebrospinal fluid (CSF), and/or plasma) are collected for analysis of Aβ levels and/or test compound concentrations (Dovey et al., 2001, Journal of Neurochemistry, 76, 173-181). Tissue samples are processed appropriately and then analyzed for the presence of Aβ by specific sandwich ELISA assays based on electrochemiluminescence (ECL) technology.
For example, in the following assay for which data are reported below, male CD IGS rats (body weight approximately 120 g, Charles River Laboratories, Kingston, N.Y.) were used to asses lowering of CSF levels of Aβ1-40 (Aβ40) in the presence of compounds of the invention. At time 0, animals were administered by oral gavage a test compound at a dose of 10 mg/kg in 20% hydroxypropyl-β-cyclodextrin (dosing volume 5 mL/kg). A separate group of animals received 20% hydroxypropyl-β-cyclodextrin alone to serve as the vehicle control group. Three hours after administration, the rats were euthanized with excess CO2. Immediately following euthanasia, CSF was collected from the cisterna magna and quickly frozen on dry ice. Samples were stored at −80° C. until quantification of Aβ40 levels.
The measurement of endogenous rat Aβ40 in CSF relied on the 585 antibody (Ab585, BioSource, NONO585), which specifically recognizes the N-terminal sequence of rodent Aβ40, and on the monoclonal antibody, G2-10, which specifically recognizes the free C-terminus of Aβ40. Ab585 was labeled with biotin (b-Ab585) by first dialyzing the antibody sample extensively versus PBS (pH 7.8) to remove impurities, followed by dilution to between 1 and 2 mg/mL protein concentration. EZ-Link Sulfo-NHS-LC-Biotin (Pierce) was dissolved in PBS (pH 7.8) at a concentration of 1 mg/mL immediately prior to use. Ab585 was labeled with EZ-Link Sulfo-NHS-LC-biotin using a 10:1 biotin:antibody ratio by incubation at room temperature for 1 hour. The labeling reaction was quenched by addition of 1.0 M glycine to a final concentration of 0.1 M followed by 10 minute incubation at room temperature. Glycine was removed by extensive dialysis versus PBS.
For rat CSF Aβ40 determinations, a calibration curve of various concentrations of synthetic rodent Aβ40 was assayed in parallel with rat CSF samples in duplicate using an avidin-coated 96-well MSD plate (Mesoscale Diagnostics). Either 50 μL of rodent Aβ40 standards diluted in PBS (pH 7.4) supplemented with 1% BSA and 1% Tween-20 (standard diluent buffer) or 40 μL of standard diluent buffer plus 10 μL rat CSF were added to each 96 well avidin-coated plate. To each well was added 50 μL of 0.1 M HEPES (pH 7.5), 2% BSA, 2% Tween-20, 0.3 M NaCl (2× Aβ40 buffer) supplemented with the b-Ab585 capture and ruthenylated-G2-10 detection antibodies diluted to 1 μg/mL and 0.5 μg/mL, respectively. Plates were shaken for 1 min on a microplate shaker, covered to protect from light and incubated overnight (˜16 h) at 4° C. For detection, plates were first washed twice with 100 μL of 1×CSF Aβ40 buffer followed by addition of 160 μL of 1×MSD read buffer-T (Mesoscale Diagnostics) diluted in 1×CSF Aβ40 buffer. Plates were read on a MSD Sector Imager 2400 model (Mesoscale Diagnosotics). […]

Test [3] concerns the target purified human autoBACE-2 (Homo sapiens (Human), UniProt Q9Y5Z0). The experiment in a line: BACE-2 Assay (BACE-HTRF assay). The following applies: Table 1; Ki calculated from IC50 with Cheng-Prusoff equation; read-out: BACE2 Ki. Type of test: biochemical. The procedure: Inhibitor IC50s, at purified human autoBACE-2 are determined in a time-resolved endpoint proteolysis assay that measures hydrolysis of the QSY7-EISEVNLDAEFC-Eu-amide FRET peptide substrate (BACE-HTRF assay). BACE-mediated hydrolysis of this peptide results in an increase in relative fluorescence (RFU) at 620 nm after excitation with 320 nm light. Inhibitor compounds, prepared at 3× the desired final concentration in 1× BACE assay buffer (20 mM sodium acetate pH 5.0, 10% glycerol, 0.1% Brij-35) supplemented with 7.5% DMSO are pre-incubated with an equal volume of autoBACE-2 enzyme diluted in 1×BACE assay buffer (final enzyme concentration 1 nM) in black 384-well NUNC plates for 30 minutes at 30° C. The assay is initiated by addition of an equal volume of the QSY7-EISEVNLDAEFC-Eu-amide substrate (200 nM final concentration, Km=8 μM […] for autoBACE-2) prepared in 1×BACE assay buffer supplemented with 7.5% DMSO and incubated for 90 minutes at 30° C. DMSO is present at 5% final concentration in the assay. Following laser excitation of sample wells at 320 nm, the fluorescence signal at 620 nm is collected for 400 ms following a 50 μs delay on a RUBYstar HTRF plate reader (BMG Labtechnologies). Raw RFU data is normalized to maximum (1.0 nM BACE/DMSO) and minimum (no enzyme/DMSO) RFU values. IC50 values are determined by nonlinear regression analysis (sigmoidal dose response, variable slope) of percent inhibition data with minimum and maximum values set to 0 and 100 percent respectively. Similar IC50s are obtained when using raw RFU data. The Ki values are calculated from the IC50 using the Cheng-Prusoff equation.

The mark [4] stands for this setting: Table 1, Ki calculated from IC50 with Cheng-Prusoff equation, read-out: BACE1 Ki.
The mark [5] stands for this setting: Table 2, male CD IGS rats, CSF three hours after administration, percent change vs vehicle cohort.

pKi: −log10 of the molar value. Read-outs that look alike come from different tables or passages of the source.

Sequence of purified human autoBACE-2 (Q9Y5Z0 63-473): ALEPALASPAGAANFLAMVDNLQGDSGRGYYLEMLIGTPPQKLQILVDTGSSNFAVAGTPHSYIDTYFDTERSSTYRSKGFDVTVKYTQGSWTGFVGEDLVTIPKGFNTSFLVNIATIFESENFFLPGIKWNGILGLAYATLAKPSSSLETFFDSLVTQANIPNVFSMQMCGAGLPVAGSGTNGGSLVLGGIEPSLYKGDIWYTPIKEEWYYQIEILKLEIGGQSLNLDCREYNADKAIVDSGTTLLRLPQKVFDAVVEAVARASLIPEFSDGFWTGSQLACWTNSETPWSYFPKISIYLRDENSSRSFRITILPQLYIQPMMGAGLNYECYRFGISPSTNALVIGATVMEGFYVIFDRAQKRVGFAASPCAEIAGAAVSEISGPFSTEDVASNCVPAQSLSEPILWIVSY
Sequence of Recombinant human soluble BACE-1 catalytic domain (P56817 75-416): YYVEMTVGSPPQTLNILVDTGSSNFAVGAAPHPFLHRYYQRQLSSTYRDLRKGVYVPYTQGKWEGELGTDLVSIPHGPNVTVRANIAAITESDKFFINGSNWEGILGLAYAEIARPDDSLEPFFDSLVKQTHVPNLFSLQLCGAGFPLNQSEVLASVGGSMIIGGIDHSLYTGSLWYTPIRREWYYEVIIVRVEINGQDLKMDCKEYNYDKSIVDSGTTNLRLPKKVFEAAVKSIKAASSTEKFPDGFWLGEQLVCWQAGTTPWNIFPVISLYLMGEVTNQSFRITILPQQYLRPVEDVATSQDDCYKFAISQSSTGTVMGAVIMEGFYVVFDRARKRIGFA

Regarding `COc1cccnc1Nc1ccnc([C@]2(C)CS(=O)(=O)N(C)C(=N)N2)c1` [165 (Table XXI), reference compound], the pKi in test [1] (Table 3, comparator compounds of WO2011044181, read-out: BACE-1 Ki Nm) is 7.32. Further, in test [2] (Table 3, comparator compounds of WO2011044181, rats, CSF at three hours, percent change vs vehicle), the change in vivo at 10 mg/kg is -11%.

Regarding `COc1cnc2c(Nc3ccc(F)c([C@]4(C)CS(=O)(=O)N(C)C(=N)N4)c3)nccc2c1` [Example 4, N-{4-fluoro-3-[(5R)-3-imino-2,5-dimethyl-1,1-dioxido-1,2,4-thiadiazinan-5-yl]phenyl}-3-methoxy-1,7-naphthyridin-8-amine], the pKi was 7.93 in test [1] (setting [4]); 7.92 in test [1] (Table 2, read-out: BACE1 Ki); 8.24 in test [3]. The change in vivo at 10 mg/kg in test [2] (setting [5]) was -45%.

For `CN1C(=N)N[C@](C)(c2cc(Nc3nccc4cc(C#N)cnc34)ccc2F)CS1(=O)=O` [Example 6, 8-({4-fluoro-3-[(5R)-3-imino-2,5-dimethyl-1,1-dioxido-1,2,4-thiadiazinan-5-yl]phenyl}amino)-1,7-naphthyridine-3-carbonitrile], the negative logarithm of the Ki (pKi) in test [1] (setting [4]) is 8.88; in test [1] (Table 2, read-out: BACE1 Ki), 8.89; in test [3] it was 9.34. For the same compound, in test [2] (setting [5]), the change in vivo at 10 mg/kg was -50%.

For `CN1C(=N)N[C@](C)(c2cc(Nc3ncnc4cc(C#N)cnc34)ccc2F)CS1(=O)=O` [Example 7, 4-({4-fluoro-3-[(5R)-3-imino-2,5-dimethyl-1,1-dioxido-1,2,4-thiadiazinan-5-yl]phenyl}amino)pyrido[3,2-d]pyrimidine-7-carbonitrile], the negative logarithm of the Ki (pKi) in test [1] (setting [4]) is 8.49; in test [1] (Table 2, read-out: BACE1 Ki) it was 8.49; in test [3] it was 8.52. Besides, the change in vivo at 10 mg/kg in test [2] (setting [5]) is -21%.

As for `CN1C(=N)N[C@](C)(c2cc(Nc3nccc4cc(F)cnc34)ccc2F)CS1(=O)=O` [Example 8, 3-fluoro-N-{4-fluoro-3-[(5R)-3-imino-2,5-dimethyl-1,1-dioxido-1,2,4-thiadiazinan-5-yl]phenyl}-1,7-naphthyridin-8-amine], the pKi is 8.68 in test [1] (setting [4]); 8.68 in test [1] (Table 2, read-out: BACE1 Ki); 9.62 in test [3]. Also, the change in vivo at 10 mg/kg in test [2] (setting [5]) was -21%.

For `COc1cnc2c(Nc3ccc(F)c([C@]4(C)CS(=O)(=O)N(C)C(=N)N4)c3)nccc2n1` [Example 9, N-{4-fluoro-3-[(5R)-3-imino-2,5-dimethyl-1,1-dioxido-1,2,4-thiadiazinan-5-yl]phenyl}-2-methoxypyrido[3,4-b]pyrazin-5-amine], the pKi is 8.59 in test [1] (setting [4]); 8.59 in test [1] (Table 2, read-out: BACE1 Ki); 8.46 in test [3]. Further, the change in vivo at 10 mg/kg in test [2] (setting [5]) is -68%.

Turning to `CN1C(=N)N[C@](C)(c2c(F)ccc(Nc3nccc4cc(C#N)cnc34)c2F)CS1(=O)=O` [Example 11, 8-({2,4-difluoro-3-[(5R)-3-imino-2,5-dimethyl-1,1-dioxido-1,2,4-thiadiazinan-5-yl]phenyl}amino)-1,7-naphthyridine-3-carbonitrile], the pKi was 8.68 in test [1] (setting [4]); 8.68 in test [1] (Table 2, read-out: BACE1 Ki); 8.96 in test [3]. For the same compound, the change in vivo at 10 mg/kg in test [2] (setting [5]) is -50%.

`CN1C(=N)N[C@](C)(c2cc(Nc3nccc4nc(C(F)F)cnc34)ccc2F)CS1(=O)=O` [Example 12, 2-(difluoromethyl)-N-{4-fluoro-3-[(5R)-3-imino-2,5-dimethyl-1,1-dioxido-1,2,4-thiadiazinan-5-yl]phenyl}pyrido[3,4-b]pyrazin-5-amine]: the negative logarithm of the Ki (pKi) in test [1] (setting [4]) was 8.28; in test [1] (Table 2, read-out: BACE1 Ki), 8.28; in test [3], 8.74. Moreover, the change in vivo at 10 mg/kg in test [2] (setting [5]) is -44%.

Consider `COc1cnc2c(Nc3ccc(F)c([C@]4(C)CS(=O)(=O)N(C)C(=N)N4)c3)ncnc2c1` [Example 14, N-{4-fluoro-3-[(5R)-3-imino-2,5-dimethyl-1,1-dioxido-1,2,4-thiadiazinan-5-yl]phenyl}-7-methoxypyrido[3,2-d]pyrimidin-4-amine], for which the negative-log Ki (pKi) in test [1] (setting [4]) is 8.37; in test [1] (Table 2, read-out: BACE1 Ki), 8.37; in test [3], 8.36. For the same compound, the change in vivo at 10 mg/kg in test [2] (setting [5]) is -55%.
